This test relates to Staphylococcus aureus. Put plainly: Antimicrobial activity against methicillin-resistant Staphylococcus aureus infected patient with skin and soft tissue infection abscesses assessed as clinical failure rate at 100 mg, po twice daily for 7 days. The format is functional, organism-based.

Calls of active or inactive are those of the source. The rule behind the calls is not given here.

Consider `C[C@H]1c2cccc(O)c2C(=O)C2=C(O)[C@]3(O)C(=O)C(C(N)=O)=C(O)[C@@H](N(C)C)[C@@H]3[C@@H](O)[C@@H]21`, for which the result was Active.

The record behind these values is ChEMBL document CHEMBL1157375, “Prospective randomized trial of empiric therapy with trimethoprim-sulfamethoxazole or doxycycline for outpatient skin and soft tissue infections in an area of high prevalence of methicillin-resistant Staphylococcus aureus” (2007).
